In US5407940A, “New ellipticine compounds” (priority 1992, dated 1995):

These molecules were tested on L1210 (assay: Cytotoxicity, line L1210 (Microculture Tetrazolium Assay)). Conditions: Mus musculus, L1210, 48 h; 2 days incubation; read-out: Cytotoxicity IC50, line L1210.
Type: cell-based, murine
Description: The cells are distributed on microplates and exposed to the cytotoxic compounds.

Row | SMILES | IC50 [nM]
1 | COc1ccc2c(c1)c1cc3c(C(=O)NCCN(C)C)nccc3c(C)c1n2C [Example 3, 1-(N,N-Dimethylaminoethylaminocarbonyl)-5,6-dimethyl-9-methoxy-6H-pyrido[4,3-b]carbazole] | 574
2 | COc1ccc2c(c1)c1cc3c(C(=O)NCCCN(C)C)nccc3c(C)c1n2C [Example 4, 1-(N,N-Dimethylaminopropylaminocarbonyl)-5,6-dimethyl-9-methoxy-6H-pyrido[4,3-b]carbazole] | 875
3 | COc1ccc2[nH]c3c(C)c4ccnc(C(=O)NCCCN(C)C)c4cc3c2c1 [Example 5, 1-(N,N-Dimethylaminopropylaminocarbonyl) -5-methyl-9-methoxy-6H-pyrido[4,3-b]carbazole] | 1500
4 | Cc1c2ccnc(C(=O)NCCCN(C)C)c2cc2c1[nH]c1ccc(O)cc12 [Example 7, 1-(N,N-Dimethylaminopropylaminocarbonyl)-5-methyl-9-hydroxy-6H-pyrido[4,3-b]carbazole] | 41
5 | COc1ccc2[nH]c3c(C)c4ccnc(C(=O)NCCN(C)C)c4cc3c2c1 [Example 8, 1-(N,N-Dimethylaminoethylaminocarbonyl)-5-methyl-9-methoxy-6H-pyrido[4,3-b]carbazole] | 487
6 | COc1ccc2[nH]c3c(C)c4ccnc(C(=O)NCCN5CCCC5)c4cc3c2c1 [Example 9, 1-[2-(Pyrrolidin-1-yl)ethylaminocarbonyl]-5-methyl-9-methoxy-6H-pyrido[4,3-b]carbazole] | 1500
7 | Cc1c2ccnc(C(=O)NCCNCCO)c2cc2c3cc(O)ccc3n(C)c12 [Example 11, 1-{2-[(2-Hydroxyethyl)amino]ethylaminocarbonyl}-5,6-dimethyl-9-hydroxy-6H-pyrido [4,3-b]carbazole] | 29.7
8 | Cc1c2ccnc(C(=O)NCCCCN)c2cc2c3cc(O)ccc3n(C)c12 [Example 12, 1-[(4-Aminobutyl)aminocarbonyl]-5,6-dimethyl-9-hydroxy-6H-pyrido[4,3-b]carbazole] | 450
9 | Cc1c2ccnc(C(=O)NCCN3CCCC3)c2cc2c3cc(O)ccc3n(C)c12 [Example 13, 1-[N-(2-Pyrrolidin-1-ylethyl)aminocarbonyl]-5,6-dimethyl-9-hydroxy-6H-pyrido[4,3-b]carbazole] | 13.1
10 | Cc1c2ccnc(C(=O)NCCCN3CCOCC3)c2cc2c3cc(O)ccc3n(C)c12 [Example 14, 1-[N-(3-Morpholinopropyl)aminocarbonyl]-5,6-dimethyl-9-hydroxy-6H-pyrido[4,3-b]carbazole] | 10.4

The molecules below were run on colon 38 (assay: Anti-tumour activity against colon 38). Conditions: 80 mg/kg, i.v., d2 and d9, d25.
Type: in vivo, female B6D2F1 mice
Description: Colon 38 (supplied by NCI, Frederick, USA) was inserted in the form of fragments by the subcutaneous route into female B6D2F1 mice. The compounds were administered by the i.v. route on d2 and d9 and the anti-tumour activity was determined on […] by measuring the tumour volume (T/C volume, %).

Row | SMILES | median T/C (tumour volume) [%]
11 | O=c1[nH]cc(F)c(=O)[nH]1 [Example 5-Fu, 5-fluorouracyle, reference compound] | 0
